In patent US5055396A, “Diagnostic methods and systems for quantifying APO AI” (Scripps Clinic and Research Foundation, priority 1987, dated 1991):

Experiments:
MAB AI-18 [1] = assay: Competitive RIA: inhibition of MAB AI-18 binding to solid-phase Apo AI/HDL by competitor antigen or peptide; parameters: species or system mouse; conditions: for B/Bo: background-adjusted; for Immunoreactivity (concentration of peptide competitor required to achieve a B/Bo value of 0.5): competitive RIA, MAB AI-18 ascites 1:1.25×10^5, solid-phase Apo AI/HDL
Procedure: One hundred ul of PBS (0.15M NaCl, 0.01M NaPO4, pH 7.2) containing 10 ug/ml Apo AI/HDL were admixed to the wells of microtiter plates. The plates were maintained for 1 hour at 20 degrees C. on a rotating platform to allow the Apo AI/HDL to adhere to the wells and form solid supports. After aspirating excess liquid from the wells, 200 ul of block solution (3% BSA, 3% NGS in PBS) was admixed to each well, and the wells were maintained for 30 minutes at 20 degrees C. on a rotating platform. Subsequently, the blocking solution was removed by aspiration and the wells were washed 3 times with SPRIA buffer.
In control wells either competing antigen or antibody was replaced by PBS containing 3% BSA.
The immunoreaction admixtures were maintained about 16 hours at 4 degrees C. on a rotating platform to permit formation of solid-phase immunoreaction products. […] The labeling immunoreaction admixtures so formed were maintained for 4 hours at 4 degrees C. on a rotating platform.
[…] of serial 3 fold dilutions of each sample prepared in Table 3 were admixed as competitor in the RIA described in this Example.
Fifty microliters of the stock of 2 fold serial dilutions of the stock were used as competitor in the RIA described in this Example.

MAB AI-18 [2] = assay: Solid-phase polypeptide competitive ELISA (AI90-105 coated wells, HRP-type labeled MAB AI-18); format: binding, mouse; conditions: reference material: pool of about 20 normal plasmas; FIG. 8
Procedure: Six hundred microliters of 25 mM NH4 HCO3, pH 9.6, containing polypeptide AI90-105 at a concentration of 5 mg/ml were admixed with 119.4 ml of 0.1M NaHC)3, pH 9.0, to form a peptide coating solution. One hundred fifty microliters of the coating solution were admixed into the wells of flexible polyvinyl chloride microtiter plates (Nunc, Source). The wells were then maintained about 16-20 hours at 4 degrees C. to permit the peptide to adsorb onto (coat) the walls of the wells. After removing the peptide coating solution by shaking, the wells were washed once with 350 ul of rinsing buffer (PBS containing 1 gm/l BSA, 0.5 ml/l Tween 20, and 2 ul/l aprotinin). Excess protein binding sites were blocked by admixing 200 ul of blocking buffer (PBS containing 3% BSA) into each well, maintaining the wells for 1 hour at 20 degrees C., removing the blocking buffer by shaking, and then washing the wells 3 times as previously described. […]
Two hundred microliters of OPD substrate were then admixed into each well to form a developing-reaction admixture, which was maintained for 30 minutes at about 20 degrees C. Subsequently, 50 ul of 4N H2 SO4 were admixed into each well to stop the developing-reaction, and the resulting solution were assayed for absorbance at 490 nanometers using a microtiter plate reader (Dynatech). […]

D: NaOH treated Apo AI/HDL, 5 ul 1N NaOH, pH 10.67
expression of the epitope recognized by MAB AI-18 after NaOH treatment (MAB AI-18 [1]; NaOH treated Apo AI/HDL, 18 hours at about 20 degrees C): decrease in expression of the epitope
CPM of 125I-labeled solid phase immunoreaction product (MAB AI-18 [1]; competitor dilution 1:3): 1174 CPM
B/Bo (MAB AI-18 [1]; competitor dilution 1:3): 0.126
CPM of 125I-labeled solid phase immunoreaction product (MAB AI-18 [1]; competitor dilution 1:9): 2746 CPM
B/Bo (MAB AI-18 [1]; competitor dilution 1:9): 0.328
CPM of 125I-labeled solid phase immunoreaction product (MAB AI-18 [1]; competitor dilution 1:27): 3854 CPM
B/Bo (MAB AI-18 [1]; competitor dilution 1:27): 0.470
CPM of 125I-labeled solid phase immunoreaction product (MAB AI-18 [1]; competitor dilution 1:81): 5220 CPM
B/Bo (MAB AI-18 [1]; competitor dilution 1:81): 0.645
CPM of 125I-labeled solid phase immunoreaction product (MAB AI-18 [1]; competitor dilution 1:243): 6385 CPM
B/Bo (MAB AI-18 [1]; competitor dilution 1:243): 0.795
CPM of 125I-labeled solid phase immunoreaction product (MAB AI-18 [1]; competitor dilution 1:729): 6917 CPM
B/Bo (MAB AI-18 [1]; competitor dilution 1:729): 0.863
CPM of 125I-labeled solid phase immunoreaction product (MAB AI-18 [1]; competitor dilution Neat): 589 CPM
B/Bo (MAB AI-18 [1]; competitor dilution Neat): 0.051

YLDDFQ (UniProt P02647 124-129, looked up, fragment) [AI100-105]
Immunoreactivity (concentration of peptide competitor required to achieve a B/Bo value of 0.5) (MAB AI-18 [1]): > 10,000 ug protein/ml
immunoreactivity values (in words) (MAB AI-18 [1]; higher value represents a lower affinity): high immunoreactivity values

SKDLEEVKAKVQPYLDDFQ [AI87-105]
Immunoreactivity (concentration of peptide competitor required to achieve a B/Bo value of 0.5) (MAB AI-18 [1]): 10 ug protein/ml

LEEVKAKVQPYLDDFQ [AI90-105]
Immunoreactivity (concentration of peptide competitor required to achieve a B/Bo value of 0.5) (MAB AI-18 [1]): 30 ug protein/ml
immunoreactivity of MAB AI-18 for peptide compared with reference material (MAB AI-18 [2]): equivalent immunoreactivities
